Literature values, collected in US6821541B2, “Anaerobic tea steeper and method of use” (priority 2002, dated 2004).
Like-named read-outs stand apart in the source and are kept apart here.

Experiments:
[1] = for stability in tea drinks: room temperature
[2] = test system: canine lymphoma (lymphosarcoma); conditions: dogs with lymphoma

For (−) epigallocatechin gallate [EGCG], the “stability in aqueous solution” value ([1]; 4° C., 24 hours, pH 3-9) is listed as “stable”, the “level remaining after degradation” value ([1]; 24 hours at 50° C. and pH 5) is listed as “below 80 % of the initial concentration” and the “stability in tea drinks” value [1] is listed as “generally stable”.

In the case of `Oc1cc(O)c2c(c1)O[C@H](c1ccc(O)c(O)c1)[C@H](O)C2` [EC, (−) epicatechin], the “stability in tea drinks” value [1] is listed as “generally stable”.

In the case of `O=C(O[C@@H]1Cc2c(O)cc(O)cc2O[C@@H]1c1ccc(O)c(O)c1)c1cc(O)c(O)c(O)c1` [ECG, (−) epicatechin gallate], the “stability in tea drinks” value [1] is listed as “generally stable”.

For `C[C@]12C=CC(=O)C=C1CC[C@@H]1[C@@H]2C(=O)C[C@@]2(C)[C@H]1CC[C@]2(O)C(=O)CO` [Prednisone], the duration of remission ([2]; guideline values) is given as “about 30 days”.

In the case of `COc1cccc2c1C(=O)c1c(O)c3c(c(O)c1C2=O)C[C@@](O)(C(=O)CO)C[C@@H]3O[C@H]1C[C@H](N)[C@H](O)[C@H](C)O1` [Doxorubicin], the duration of remission ([2]; drug alone, guideline value) is listed as 18-29 weeks.
